Test results reported in US9447051B2, “Diaminopyrimidines and uses thereof” (AbbVie inc., priority 2012, dated 2016).

system: RSV (Group A, Long Strain); assay: Antiviral (RSV) assay: cytopathetic effect (CPE) protection assay in HEp-2 cells, MTT readout; assay type: cell-based, human respiratory syncytial virus (RSV); conditions: Table 1, 0.2 MOI RSV, 4 days incubation, protection from CPE
Method: HEp-2 cells and RSV (Group A, Long Strain) were obtained from the American Type Culture Collection (Manassas, Va.). A cytopathetic effect (CPE) protection assay was performed to determine the ability of a compound to protect the cells from viral infection and thus the CPE induced by viral infection. 96-well plates were first seeded with 3×10^3 HEp-2 cells per well in Dulbecco's modified Eagle's medium (DMEM) containing 10% fetal bovine serum (FBS). One day after the cells were seeded, they were preincubated with serial dilutions of compounds prepared in 100 μL assay medium (DMEM mixed with F12 medium at a 1:1 ratio, supplemented with 2% FBS and 1 mM sodium pyruvate) for 1 hour at 37° C. 100 μL of assay medium containing 0.2 multiplicity of infection (MOI) of RSV was then added to each well of cells. In addition to wells containing infected cells incubated with compounds, each plate also contained replicates of two kinds of controls: (1) Virus control contained cells infected with 0.2 MOI of RSV in assay medium, (2) Uninfected cell control contained cells incubated with assay medium only. After 4 days of incubation at 37° C., the viability of cells was assessed using MTT (Thiazolyl blue tetrazolium bromide, Sigma). A stock solution of MTT, at a concentration of 4 mg/mL in phosphate-buffered saline, was added to all wells at 25 μL per well. Plates were further incubated for 4 hours, and each well was then treated with 50 μL of a solution containing 20% sodium dodecyl sulfate (SDS) and 0.02 N HCl. After an overnight incubation, the plates were measured on a BioTek® microtiter plate reader at wavelengths of 570 nm and 650 nm. The MTT detection is based on the fact that viable (uninfected) cells can reduce the tetrazolium salts into colored formazan products, which can then be quantitated by spectrometry. […] Compounds were tested to determine both their antiviral and toxicity to determine their therapeutic window. Determination of the EC50 and TD50 of these active compounds were repeated one additional time to confirm the window.

SMILES	EC50 [µM]
Cc1nc(NCc2ccccn2)nc(NC2CCC(C)(O)CC2)c1C (stereo not drawn) [Example 37, cis-4-({5,6-dimethyl-2-[(pyridin-2-ylmethyl)amino]pyrimidin-4-yl}amino)-1-methylcyclohexanol]	0.36

same assay, conditions: human respiratory syncytial virus, HEp-2, 96 h, Table 1, 0.2 MOI RSV, 4 days incubation, protection from CPE

SMILES	EC50 [µM]
Cc1nc(NCc2c(C)noc2C)nc(NC2CCCCC2)c1C [Example 23, N^4-cyclohexyl-N^2-[(3,5-dimethyl-1,2-oxazol-4-yl)methyl]-5,6-dimethylpyrimidine-2,4-diamine]	> 10
Cc1nc(NCc2ccccn2)nc(NC2CCCC2)c1C [Example 29, N^4-cyclopentyl-5,6-dimethyl-N^2-(pyridin-2-ylmethyl)pyrimidine-2,4-diamine]	0.92
Cc1nc(NCc2cn(C)cn2)nc(NC2CCCCC2)c1C [Example 24, N^4-cyclohexyl-5,6-dimethyl-N^2-[(1-methyl-1H-imidazol-4-yl)methyl]pyrimidine-2,4-diamine]	0.045
COc1cccc(CNc2nc(C)c(C)c(NC3CCCCC3)n2)c1 [Example 25, N^4-cyclohexyl-N^2-(3-methoxybenzyl)-5,6-dimethylpyrimidine-2,4-diamine]	> 3.4
Cc1nc(NCc2ccccn2)nc(NC2CCS(=O)(=O)C2)c1C (stereo not shown) [Example 70, N^4-(1,1-dioxidotetrahydrothiophen-3-yl)-5,6-dimethyl-N^2-(pyridin-2-ylmethyl)pyrimidine-2,4-diamine]	0.95
Cc1nc(NCc2ccccn2)nc(NC2CCC(O)C2)c1C (stereo not shown) [Example 34, 3-({5,6-dimethyl-2-[(pyridin-2-ylmethyl)amino]pyrimidin-4-yl}amino)cyclopentanol]	4.3
Cc1nc(NCc2ccccn2)nc(NC2CC3CCC2C3)c1C (stereo not shown) [Example 39, N^4-(bicyclo[2.2.1]hept-2-yl)-5,6-dimethyl-N^2-(pyridin-2-ylmethyl)pyrimidine-2,4-diamine]	1.25
Cc1nc(NCc2ccc(C(F)(F)F)cn2)nc(NC2CCCCC2)c1C [Example 20, N^4-cyclohexyl-5,6-dimethyl-N^2-{[5-(trifluoromethyl)pyridin-2-yl]methyl}pyrimidine-2,4-diamine]	> 8.7
Cc1nc(NCc2ccccn2)nc(N[C@H]2CCCC[C@H]2CO)c1C (racemic) [Example 43, rac-[(1R,2S)-2-({5,6-dimethyl-2-[(pyridin-2-ylmethyl)amino]pyrimidin-4-yl}amino)cyclohexyl]methanol]	0.19
Cc1ccc(CNc2nc(C)c(C)c(NC3CCCCC3)n2)nc1 [Example 86, N^4-cyclohexyl-5,6-dimethyl-N^2-[(5-methylpyridin-2-yl)methyl]pyrimidine-2,4-diamine]	1.5
Cc1nc(NCc2cc(C(C)(C)C)ccn2)nc(NC2CCCCC2)c1C [Example 21, N^2-[(4-tert-butylpyridin-2-yl)methyl]-N^4-cyclohexyl-5,6-dimethylpyrimidine-2,4-diamine]	> 6.1
Cc1nc(NCc2cccnc2)nc(NC2CCCCC2)c1C [Example 6, N^4-cyclohexyl-5,6-dimethyl-N^2-(pyridin-3-ylmethyl)pyrimidine-2,4-diamine]	0.24
Cc1nc(NCc2ccccn2)nc(N(C)C2CCCCC2)c1C [Example 77, N^4-cyclohexyl-N^4,5,6-trimethyl-N^2-(pyridin-2-ylmethyl)pyrimidine-2,4-diamine]	1.2
COc1ccnc(CNc2nc(C)c(C)c(NC3CCCCC3)n2)c1 [Example 18, N^4-cyclohexyl-N^2-[(4-methoxypyridin-2-yl)methyl]-5,6-dimethylpyrimidine-2,4-diamine]	0.31
Cc1nc(NCc2ccccn2)nc(Nc2c(C(C)C)cccc2C(C)C)c1C [Example 84, N^4-(2,6-diisopropylphenyl)-5,6-dimethyl-N^2-(pyridin-2-ylmethyl)pyrimidine-2,4-diamine]	0.016
CCc1ccnc(CNc2nc(C)c(C)c(NC3CCC(F)(F)CC3)n2)c1 [Example 90, N^4-(4,4-difluorocyclohexyl)-N^2-[(4-ethylpyridin-2-yl)methyl]-5,6-dimethylpyrimidine-2,4-diamine]	0.51

Second part, the compound after the results:

EC50 [µM]	SMILES
0.025	Cc1nc(NCc2ccccn2)nc(Nc2cccc(C(F)(F)F)c2)c1C [Example 54, 5,6-dimethyl-N^2-(pyridin-2-ylmethyl)-N^4-[3-(trifluoromethyl)phenyl]pyrimidine-2,4-diamine]
0.14	Cc1nc(NCc2ccccn2)nc(Nc2c(F)cccc2F)c1C [Example 55, N^4-(2,6-difluorophenyl)-5,6-dimethyl-N^2-(pyridin-2-ylmethyl)pyrimidine-2,4-diamine]
0.04	Cc1nc(NCc2ccccn2)nc(Nc2cccc(Cl)c2)c1C [Example 65, N^4-(3-chlorophenyl)-5,6-dimethyl-N^2-(pyridin-2-ylmethyl)pyrimidine-2,4-diamine]
0.14	Cc1nc(NCc2ccccn2)nc(NCc2ccc(F)cc2)c1C [Example 97, N^4-(4-fluorobenzyl)-5,6-dimethyl-N^2-(pyridin-2-ylmethyl)pyrimidine-2,4-diamine]
0.026	Cc1cc(F)ccc1Nc1nc(NCc2ccccn2)nc(C)c1C [Example 75, N^4-(4-fluoro-2-methylphenyl)-5,6-dimethyl-N^2-(pyridin-2-ylmethyl)pyrimidine-2,4-diamine]
0.038	Cc1nc(NCc2ccccn2)nc(Nc2cccc(OC(F)(F)F)c2)c1C [Example 53, 5,6-dimethyl-N^2-(pyridin-2-ylmethyl)-N^4-[3-(trifluoromethoxy)phenyl]pyrimidine-2,4-diamine]
5.3	Cc1nc(NCc2ccccn2)nc(Nc2ccon2)c1C [Example 95, 5,6-dimethyl-N^4-(1,2-oxazol-3-yl)-N^2-(pyridin-2-ylmethyl)pyrimidine-2,4-diamine]
0.04	Cc1ccc(F)cc1Nc1nc(NCc2ccccn2)nc(C)c1C [Example 71, N^4-(5-fluoro-2-methylphenyl)-5,6-dimethyl-N^2-(pyridin-2-ylmethyl)pyrimidine-2,4-diamine]
2.4	Cc1nc(NCc2ccccn2)nc(Nc2nncs2)c1C [Example 94, 5,6-dimethyl-N^2-(pyridin-2-ylmethyl)-N^4-(1,3,4-thiadiazol-2-yl)pyrimidine-2,4-diamine]
0.93	Cc1nc(NCc2ccccn2)nc(Nc2cccnc2)c1C [Example 93, 5,6-dimethyl-N^4-(pyridin-3-yl)-N^2-(pyridin-2-ylmethyl)pyrimidine-2,4-diamine]
0.1	Cc1nc(NCc2ccccn2)nc(Nc2ccc(F)cc2)c1C [Example 50, N^4-(4-fluorophenyl)-5,6-dimethyl-N^2-(pyridin-2-ylmethyl)pyrimidine-2,4-diamine]
0.1	Cc1nc(NCc2ccccn2)nc(Nc2cc(F)ccc2F)c1C [Example 60, N^4-(2,5-difluorophenyl)-5,6-dimethyl-N^2-(pyridin-2-ylmethyl)pyrimidine-2,4-diamine]
0.11	Cc1cccc(Nc2nc(NCc3ccccn3)nc(C)c2C)c1 [Example 69, 5,6-dimethyl-N^4-(3-methylphenyl)-N^2-(pyridin-2-ylmethyl)pyrimidine-2,4-diamine]
15	Cc1cc(Nc2nc(NCc3ccccn3)nc(C)c2C)no1 [Example 96, 5,6-dimethyl-N^4-(5-methyl-1,2-oxazol-3-yl)-N^2-(pyridin-2-ylmethyl)pyrimidine-2,4-diamine]
